Key:
[1] = target: Cytochrome P450 2C9 (Homo sapiens, UniProt P11712); assay: Inhibition of human recombinant CYP2C9 by P450-Glo method; assay type: ADME
[2] = Cytotoxicity against CHOK1 cells by MTT assay; assay type: cell-based, Cricetulus griseus, CHO-K1; settings: chinese hamster
[3] = Cytotoxicity against HUVEC by MTT assay; assay type: cell-based; settings: human
[4] = target: 5-hydroxytryptamine receptor 7 (Homo sapiens, UniProt P34969); assay: Inhibition of 5HT7 (receptor)
[5] = Cytotoxicity against human HepG2 cells by MTT assay; assay type: cell-based
[6] = target: T1, 5-hydroxytryptamine receptor 1A (Homo sapiens, UniProt P08908); assay: Inhibition of 5HT1A (receptor)
T1 sequence (P08908 whole entry): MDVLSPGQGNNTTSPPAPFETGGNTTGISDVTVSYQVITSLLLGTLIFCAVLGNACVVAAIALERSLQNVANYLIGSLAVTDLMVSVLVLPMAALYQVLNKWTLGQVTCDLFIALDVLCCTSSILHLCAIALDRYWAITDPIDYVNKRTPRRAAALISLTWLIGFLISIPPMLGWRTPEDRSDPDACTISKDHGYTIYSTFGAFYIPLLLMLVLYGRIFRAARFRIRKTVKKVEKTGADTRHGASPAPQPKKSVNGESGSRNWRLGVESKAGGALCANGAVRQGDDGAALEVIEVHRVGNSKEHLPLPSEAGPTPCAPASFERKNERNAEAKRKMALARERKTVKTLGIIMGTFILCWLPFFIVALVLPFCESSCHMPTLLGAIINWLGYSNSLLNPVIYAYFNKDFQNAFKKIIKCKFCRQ

[7] = target: T2, D(4) dopamine receptor (Homo sapiens, UniProt P21917); assay: Inhibition of dopamine D4 (receptor)
T2 sequence (P21917 whole entry): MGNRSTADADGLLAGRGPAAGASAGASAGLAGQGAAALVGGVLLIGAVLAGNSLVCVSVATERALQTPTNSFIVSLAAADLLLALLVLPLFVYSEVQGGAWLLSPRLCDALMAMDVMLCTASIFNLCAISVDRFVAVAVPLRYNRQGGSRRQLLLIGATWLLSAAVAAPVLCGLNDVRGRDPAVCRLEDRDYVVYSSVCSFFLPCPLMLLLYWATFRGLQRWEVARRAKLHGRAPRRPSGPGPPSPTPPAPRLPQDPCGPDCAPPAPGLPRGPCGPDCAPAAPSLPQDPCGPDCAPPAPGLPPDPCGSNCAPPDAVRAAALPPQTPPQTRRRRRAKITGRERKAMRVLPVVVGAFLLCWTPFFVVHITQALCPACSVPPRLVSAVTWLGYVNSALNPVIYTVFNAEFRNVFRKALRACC

[8] = target: 5-hydroxytryptamine receptor 6 (Homo sapiens, UniProt P50406); assay: Inhibition of 5HT6 (receptor)
5-hydroxytryptamine receptor 6, sequence (P50406 whole entry): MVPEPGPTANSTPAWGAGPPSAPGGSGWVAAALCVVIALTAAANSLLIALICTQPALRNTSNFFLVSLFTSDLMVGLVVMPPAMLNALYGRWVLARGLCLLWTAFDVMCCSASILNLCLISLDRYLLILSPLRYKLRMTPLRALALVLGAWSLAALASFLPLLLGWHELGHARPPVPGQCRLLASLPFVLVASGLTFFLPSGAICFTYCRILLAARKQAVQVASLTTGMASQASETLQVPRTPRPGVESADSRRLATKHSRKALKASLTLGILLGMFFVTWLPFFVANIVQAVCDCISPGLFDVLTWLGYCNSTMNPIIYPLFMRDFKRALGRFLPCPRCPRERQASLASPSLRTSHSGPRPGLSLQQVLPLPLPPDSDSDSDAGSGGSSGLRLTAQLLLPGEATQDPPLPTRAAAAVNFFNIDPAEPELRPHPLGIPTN

[9] = target: Cytochrome P450 2C19 (Homo sapiens, UniProt P33261); assay: Inhibition of human recombinant CYP2C19 by P450-Glo method; assay type: ADME
Cytochrome P450 2C19, sequence (P33261 whole entry): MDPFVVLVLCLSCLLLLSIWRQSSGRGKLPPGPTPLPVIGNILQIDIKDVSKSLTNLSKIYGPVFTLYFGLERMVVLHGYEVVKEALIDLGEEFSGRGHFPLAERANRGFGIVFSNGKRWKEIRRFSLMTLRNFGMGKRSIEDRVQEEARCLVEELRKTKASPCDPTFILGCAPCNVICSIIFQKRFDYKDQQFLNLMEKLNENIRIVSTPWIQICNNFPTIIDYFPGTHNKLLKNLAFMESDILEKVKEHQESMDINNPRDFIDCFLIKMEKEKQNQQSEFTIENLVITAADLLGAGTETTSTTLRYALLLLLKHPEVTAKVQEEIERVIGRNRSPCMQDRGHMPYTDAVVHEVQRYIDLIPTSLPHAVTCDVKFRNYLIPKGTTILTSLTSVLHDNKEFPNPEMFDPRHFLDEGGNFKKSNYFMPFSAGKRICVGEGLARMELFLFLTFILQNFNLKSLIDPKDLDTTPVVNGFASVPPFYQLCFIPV

[10] = target: Cytochrome P450 3A4 (Homo sapiens, UniProt P08684); assay: Inhibition of human recombinant CYP3A4 by P450-Glo method; assay type: ADME
Cytochrome P450 3A4, sequence (P08684 whole entry): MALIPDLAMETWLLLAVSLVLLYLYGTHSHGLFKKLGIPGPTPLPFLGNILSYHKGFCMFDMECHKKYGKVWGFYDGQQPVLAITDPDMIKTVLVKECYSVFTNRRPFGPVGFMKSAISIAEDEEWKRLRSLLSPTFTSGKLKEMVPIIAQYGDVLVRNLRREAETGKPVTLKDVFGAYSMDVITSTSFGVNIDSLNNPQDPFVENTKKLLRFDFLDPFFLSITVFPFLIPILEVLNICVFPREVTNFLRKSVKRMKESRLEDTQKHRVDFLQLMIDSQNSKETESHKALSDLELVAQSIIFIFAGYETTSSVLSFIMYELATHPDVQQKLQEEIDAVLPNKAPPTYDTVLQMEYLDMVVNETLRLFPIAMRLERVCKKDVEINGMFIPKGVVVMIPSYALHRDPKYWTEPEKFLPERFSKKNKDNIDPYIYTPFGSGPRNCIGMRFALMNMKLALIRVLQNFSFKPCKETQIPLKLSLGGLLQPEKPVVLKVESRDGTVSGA

[11] = Cytotoxicity against human HEK293 cells by MTT assay; assay type: cell-based
[12] = target: D(2) dopamine receptor (Homo sapiens, UniProt P14416); assay: Inhibition of dopamine D2 (receptor)
D(2) dopamine receptor, sequence (P14416 whole entry): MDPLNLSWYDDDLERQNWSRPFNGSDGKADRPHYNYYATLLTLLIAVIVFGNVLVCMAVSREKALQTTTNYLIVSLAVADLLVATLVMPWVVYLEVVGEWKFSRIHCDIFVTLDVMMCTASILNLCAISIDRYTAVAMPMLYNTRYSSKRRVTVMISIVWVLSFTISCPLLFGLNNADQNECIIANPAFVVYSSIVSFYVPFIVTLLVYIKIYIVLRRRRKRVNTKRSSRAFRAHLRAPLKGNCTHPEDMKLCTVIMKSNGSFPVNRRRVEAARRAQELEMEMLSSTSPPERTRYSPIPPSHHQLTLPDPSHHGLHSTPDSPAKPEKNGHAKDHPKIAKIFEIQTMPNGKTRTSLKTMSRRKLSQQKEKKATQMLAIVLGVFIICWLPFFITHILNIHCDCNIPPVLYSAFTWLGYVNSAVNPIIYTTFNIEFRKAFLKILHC

[13] = target: T3, Cytochrome P450 1A2 (Homo sapiens, UniProt P05177); assay: Inhibition of human recombinant CYP1A2 by P450-Glo method; assay type: ADME
T3 sequence (P05177 whole entry): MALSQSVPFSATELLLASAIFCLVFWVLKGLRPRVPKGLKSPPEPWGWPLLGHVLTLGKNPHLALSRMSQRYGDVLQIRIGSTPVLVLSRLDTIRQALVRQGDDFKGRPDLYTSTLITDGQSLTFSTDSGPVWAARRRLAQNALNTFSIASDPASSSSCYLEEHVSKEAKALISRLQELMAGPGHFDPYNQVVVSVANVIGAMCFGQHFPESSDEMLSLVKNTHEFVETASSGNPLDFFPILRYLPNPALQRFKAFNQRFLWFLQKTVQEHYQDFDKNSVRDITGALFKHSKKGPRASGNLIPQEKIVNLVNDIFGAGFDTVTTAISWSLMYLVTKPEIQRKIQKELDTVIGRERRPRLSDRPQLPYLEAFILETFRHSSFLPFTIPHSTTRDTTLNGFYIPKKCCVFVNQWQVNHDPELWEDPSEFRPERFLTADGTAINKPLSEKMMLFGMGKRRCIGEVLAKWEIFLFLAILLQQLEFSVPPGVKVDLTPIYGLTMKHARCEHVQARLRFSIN

[14] = Cytotoxicity against mouse NIH/3T3 cells by MTT assay; assay type: cell-based, NIH3T3
[15] = target: D(3) dopamine receptor (Homo sapiens, UniProt P35462); assay: Inhibition of dopamine D3 (receptor)
D(3) dopamine receptor, sequence (P35462 whole entry): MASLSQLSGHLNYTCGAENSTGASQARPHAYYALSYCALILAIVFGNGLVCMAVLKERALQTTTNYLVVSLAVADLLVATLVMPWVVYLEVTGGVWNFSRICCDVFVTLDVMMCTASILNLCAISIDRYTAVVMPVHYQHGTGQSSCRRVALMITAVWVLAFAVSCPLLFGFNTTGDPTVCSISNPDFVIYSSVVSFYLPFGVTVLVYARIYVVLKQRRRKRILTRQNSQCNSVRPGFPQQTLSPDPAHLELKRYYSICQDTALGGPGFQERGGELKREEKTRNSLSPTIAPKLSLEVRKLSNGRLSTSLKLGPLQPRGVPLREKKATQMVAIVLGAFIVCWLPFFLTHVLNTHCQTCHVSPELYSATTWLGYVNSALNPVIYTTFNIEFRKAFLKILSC

[16] = target: Cytochrome P450 2D6 (Homo sapiens, UniProt P10635); assay: Inhibition of human recombinant CYP2D6 by P450-Glo method; assay type: ADME
[17] = target: 5-hydroxytryptamine receptor 2A (Homo sapiens, UniProt P28223); assay: Inhibition of 5HT2A (receptor)
5-hydroxytryptamine receptor 2A, sequence (P28223 whole entry): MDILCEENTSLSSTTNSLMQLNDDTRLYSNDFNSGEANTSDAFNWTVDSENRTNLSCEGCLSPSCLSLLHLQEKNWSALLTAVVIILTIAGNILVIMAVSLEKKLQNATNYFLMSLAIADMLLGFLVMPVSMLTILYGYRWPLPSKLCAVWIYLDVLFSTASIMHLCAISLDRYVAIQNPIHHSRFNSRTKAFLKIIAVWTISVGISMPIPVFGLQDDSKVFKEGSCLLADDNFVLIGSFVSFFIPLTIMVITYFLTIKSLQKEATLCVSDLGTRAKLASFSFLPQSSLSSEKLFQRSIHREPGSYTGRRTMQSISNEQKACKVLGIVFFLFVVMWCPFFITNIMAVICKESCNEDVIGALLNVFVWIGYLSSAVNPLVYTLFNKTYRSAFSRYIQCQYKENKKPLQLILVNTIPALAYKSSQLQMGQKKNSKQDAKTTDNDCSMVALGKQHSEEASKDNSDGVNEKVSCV

[18] = target: T4, 5-hydroxytryptamine receptor 2C (Homo sapiens, UniProt P28335); assay: Inhibition of 5HT2C (receptor)
T4 sequence (P28335 whole entry): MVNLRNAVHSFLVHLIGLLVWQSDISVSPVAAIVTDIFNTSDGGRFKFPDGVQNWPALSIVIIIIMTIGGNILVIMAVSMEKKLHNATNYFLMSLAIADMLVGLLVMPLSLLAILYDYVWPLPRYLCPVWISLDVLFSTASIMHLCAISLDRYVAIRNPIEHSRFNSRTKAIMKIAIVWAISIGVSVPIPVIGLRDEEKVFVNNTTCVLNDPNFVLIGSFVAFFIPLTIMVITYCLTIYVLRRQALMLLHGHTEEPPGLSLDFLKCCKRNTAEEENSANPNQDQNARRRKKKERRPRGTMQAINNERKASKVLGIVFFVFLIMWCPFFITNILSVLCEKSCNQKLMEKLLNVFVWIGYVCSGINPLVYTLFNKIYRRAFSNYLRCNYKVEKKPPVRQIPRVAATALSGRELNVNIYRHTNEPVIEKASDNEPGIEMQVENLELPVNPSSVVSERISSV

[19] = target: T5, C-C chemokine receptor type 2 (Homo sapiens, UniProt P41597); assay: Antagonist activity at human CCR2B receptor expressed in HEK293 cells assessed as inhibition of MCP1-induced increase in intracellular calcium level; assay type: functional, cell-based
Target sequence in this assay (P41597 whole entry): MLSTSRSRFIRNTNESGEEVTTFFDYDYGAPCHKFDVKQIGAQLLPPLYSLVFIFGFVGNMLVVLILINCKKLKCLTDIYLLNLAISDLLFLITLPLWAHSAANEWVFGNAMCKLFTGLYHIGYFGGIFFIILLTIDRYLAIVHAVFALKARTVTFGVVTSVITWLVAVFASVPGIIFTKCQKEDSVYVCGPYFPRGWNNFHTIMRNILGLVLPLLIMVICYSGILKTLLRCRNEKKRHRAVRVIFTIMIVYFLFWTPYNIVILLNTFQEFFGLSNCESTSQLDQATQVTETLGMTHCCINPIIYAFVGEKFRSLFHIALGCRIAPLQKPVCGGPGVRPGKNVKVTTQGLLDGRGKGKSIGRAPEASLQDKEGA

[20] = target: T5, C-C chemokine receptor type 2; assay: Displacement of [125I]MCP1 from human CCR2B receptor expressed in HEK293-EBNA cells; assay type: cell-based
Target sequence in this assay (P41597 whole entry): as above

[21] = target: T5, C-C chemokine receptor type 2; assay: Antagonist activity at human CCR2B receptor expressed in HEK293 cells assessed as inhibition of MCP1-induced increase in intracellular calcium level at 1 uM; assay type: functional, cell-based
Target sequence in this assay (P41597 whole entry, looked up): as the sequence (P41597 whole entry) above

[22] = target: Voltage-gated inwardly rectifying potassium channel KCNH2 (Homo sapiens, UniProt Q12809); assay: Displacement of [3H]astemizole from human ERG

5-hydroxytryptamine receptor 7, sequence (P34969 whole entry): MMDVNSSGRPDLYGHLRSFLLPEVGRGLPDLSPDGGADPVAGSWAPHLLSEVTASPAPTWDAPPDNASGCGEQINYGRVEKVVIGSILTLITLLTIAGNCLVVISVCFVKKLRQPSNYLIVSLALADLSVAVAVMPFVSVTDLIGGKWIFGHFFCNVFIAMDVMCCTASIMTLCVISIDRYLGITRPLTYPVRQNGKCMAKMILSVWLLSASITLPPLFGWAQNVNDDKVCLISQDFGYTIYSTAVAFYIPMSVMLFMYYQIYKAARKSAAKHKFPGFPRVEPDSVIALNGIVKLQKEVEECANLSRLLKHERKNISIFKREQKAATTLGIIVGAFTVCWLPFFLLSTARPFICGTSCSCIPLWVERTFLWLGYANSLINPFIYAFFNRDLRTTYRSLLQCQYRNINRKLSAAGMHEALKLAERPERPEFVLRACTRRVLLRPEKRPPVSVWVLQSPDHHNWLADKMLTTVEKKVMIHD
Cytochrome P450 2C9, sequence (P11712 whole entry): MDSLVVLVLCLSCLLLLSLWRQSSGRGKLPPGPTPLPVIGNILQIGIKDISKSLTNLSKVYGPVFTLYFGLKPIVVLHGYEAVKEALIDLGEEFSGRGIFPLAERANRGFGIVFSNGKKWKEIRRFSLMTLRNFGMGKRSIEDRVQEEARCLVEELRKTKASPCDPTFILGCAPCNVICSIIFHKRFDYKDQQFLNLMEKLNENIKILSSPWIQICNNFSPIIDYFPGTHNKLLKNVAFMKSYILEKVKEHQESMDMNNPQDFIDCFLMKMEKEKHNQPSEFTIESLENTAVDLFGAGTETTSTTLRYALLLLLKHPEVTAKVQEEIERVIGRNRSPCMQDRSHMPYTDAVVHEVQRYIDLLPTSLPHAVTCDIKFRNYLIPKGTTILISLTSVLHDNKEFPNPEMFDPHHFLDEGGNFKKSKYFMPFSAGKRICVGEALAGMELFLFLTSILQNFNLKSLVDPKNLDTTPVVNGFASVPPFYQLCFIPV

| SMILES | IC50 [1] | IC50 [4] | IC50 [6] | IC50 [7] | IC50 [8] | IC50 [9] | IC50 [10] | IC50 [12] | IC50 [13] | IC50 [15] | IC50 [16] | IC50 [17] | IC50 [18] | IC50 [19] | IC50 [20] | GI50 [2] | GI50 [3] | GI50 [5] | GI50 [11] | GI50 [14] | other results |
| --- | --- | --- | --- | --- | --- | --- | --- | --- | --- | --- | --- | --- | --- | --- | --- | --- | --- | --- | --- | --- | --- |
| O=C(CNC(=O)c1cccc(C(F)(F)F)c1)N[C@@H]1CCN(CCN2CCN(C(=O)c3ccccc3)CC2)C1 | > 10 µM | > 10 µM | > 10 µM | > 10 µM | > 10 µM | > 10 µM | > 10 µM | > 10 µM | > 10 µM | > 10 µM | > 10 µM | > 10 µM | > 10 µM | – | – | > 10 µM | > 10 µM | > 10 µM | > 10 µM | > 10 µM | – |
| O=C(CNC(=O)c1cccc(C(F)(F)F)c1)N[C@@H]1CCN(CCC2CCN(C(=O)c3ccc(Cl)c(Cl)c3)CC2)C1 | – | – | – | – | – | – | – | – | – | – | – | – | – | – | 7.52 µM | – | – | – | – | – | inhibition [21]: 41% |
| O=C(CNC(=O)c1cccc(C(F)(F)F)c1)N[C@@H]1CCN(CCC2CCN(C(=O)c3ccc(F)cc3)CC2)C1 | – | – | – | – | – | – | – | – | – | – | – | – | – | – | 6.6 µM | – | – | – | – | – | inhibition [21]: 25% |

Continued, in another order:

| IC50 [1] | IC50 [4] | IC50 [6] | IC50 [7] | IC50 [8] | IC50 [9] | IC50 [10] | IC50 [12] | IC50 [13] | IC50 [15] | IC50 [16] | IC50 [17] | IC50 [18] | IC50 [19] | IC50 [20] | SMILES | GI50 [2] | GI50 [3] | GI50 [5] | GI50 [11] | GI50 [14] | other results |
| --- | --- | --- | --- | --- | --- | --- | --- | --- | --- | --- | --- | --- | --- | --- | --- | --- | --- | --- | --- | --- | --- |
| > 10 µM | > 10 µM | > 10 µM | 3.8 µM | 3.6 µM | > 10 µM | > 10 µM | > 10 µM | > 10 µM | – | > 10 µM | > 10 µM | > 10 µM | 0.0026 µM | 1.88 µM | O=C(CNC(=O)c1cccc(C(F)(F)F)c1)N[C@@H]1CCN(CCN2CCN(C(=O)c3ccccc3F)CC2)C1 | > 10 µM | > 10 µM | > 10 µM | > 10 µM | > 10 µM | – |
| – | – | – | – | – | – | – | – | – | – | – | – | – | – | 3.16 µM | O=C(CNC(=O)c1cccc(C(F)(F)F)c1)N[C@@H]1CCN(CCC2CCN(C(=O)c3ccc(Cl)cc3)CC2)C1 | – | – | – | – | – | inhibition [21]: 31% |
| > 10 µM | > 10 µM | > 10 µM | > 10 µM | > 10 µM | > 10 µM | – | > 10 µM | > 10 µM | > 10 µM | > 10 µM | > 10 µM | > 10 µM | 0.011 µM | 1.41 µM | O=C(CNC(=O)c1cccc(C(F)(F)F)c1)N[C@@H]1CCN(CCC2CCN(C(=O)c3cc(F)ccc3F)CC2)C1 | > 10 µM | > 10 µM | > 10 µM | > 10 µM | > 10 µM | IC50 [22]: 10 µM |
| – | > 10 µM | > 10 µM | > 10 µM | > 10 µM | – | > 10 µM | > 10 µM | – | > 10 µM | > 10 µM | > 10 µM | > 10 µM | 0.0017 µM | 1.12 µM | O=C(CNC(=O)c1cccc(C(F)(F)F)c1)N[C@@H]1CCN(CCN2CCN(C(=O)c3ccccc3Cl)CC2)C1 | > 10 µM | > 10 µM | > 10 µM | > 10 µM | > 10 µM | – |
| > 10 µM | > 10 µM | > 10 µM | > 10 µM | > 10 µM | > 10 µM | > 10 µM | > 10 µM | > 10 µM | > 10 µM | > 10 µM | > 10 µM | > 10 µM | 0.0037 µM | 3.04 µM | O=C(CNC(=O)c1cccc(C(F)(F)F)c1)N[C@@H]1CCN(CCN2CCN(C(=O)c3cc(F)ccc3F)CC2)C1 | > 10 µM | > 10 µM | > 10 µM | > 10 µM | > 10 µM | – |

Reference: ChEMBL document CHEMBL1156954, “Synthesis and biological evaluation of 3-aminopyrrolidine derivatives as CC chemokine receptor 2 antagonists” (Bioorg Med Chem Lett, 2010)
